Data: US20050192279A1, “Pyridazinones as antagonists of alpha4 integrins” (priority 2004, published 2005)

Tests used:
DSS induced colitis = test: Dextran Sulfate Sodium (DSS) Induced Colitis; format: in vivo, Balb/c female mice and C57Black/6 mice
Source text: In Vivo Model for Colitis: Dextran Sulfate Sodium (DSS) Induced Colitis Inflammatory bowel diseases such as ulcerative colitis and Crohn's disease are characterized by diminished intestinal barrier function, apparent inflammatory damage that may include erosive loss of intestinal mucosa, and inflammatory infiltrates in the mucosa and submucosa. […] Among the many possible chemicals used are dextran sulfate sodium (DSS) and trinitrobenzene sulfonic acid (TNBS). The dextran sulfate sodium model of experimental colitis is characterized by a shrinkage of the colon's length, macrosopic inflammatory damage, diarrhea, a discontinuous pattern of mucosal epithelial damage in the distal colon with infiltration of inflammatory cells that include macrophages and neutrophils into the mucosa and submucosa (Blumberg, R. S., Saubermann, L. J., and Strober, W. Animal models of mucosal inflammation and their relation to human inflammatory bowel disease. Current Opinion in Immunology, 11: 648-656, 1999; […]., and Nakaya, R. A novel method of induction of reliable experimental acute and chronic colitis in mice. […] Cooper, […]., and […]. Clinicopathologic study of dextran sulfate sodium experimental murine colitis. Lab Invest., 69: 238-249, 1993; […]., Bajaj-Elliott, M., MacDonald, […]., and Buchler, M. W. Characterization of acute murine dextran sodium sulphate colitis: Cytokine profile and dose dependency. Digestion, 62: 240-248, 2000; […]., Husband, A. J., and Doe, W. F. The inflammatory infiltrate in the acute stage of the dextran sulphate sodium induced colitis: B cell response differs depending on the percentage of DSS used to induce it. BMC Clinical Pathology, 1: 3-13, 2001; and Diaz-Granados, Howe, K., Lu, J, and […]. Dextran sulfate sodium-induced colonic histopathology, but not altered epithelial ion transport, is reduced by inhibition of phosphodiesterase activity. Amer. J. Pathology, 156: 2169-2177, 2000). Balb/c female mice and […]/6 mice were used in these studies. […] When […]/6 mice were used, a solution of tap water containing 4% DSS was used. During the ensuing 7-day period, test animals were administered a preparation of an experimental compound. This material may be administered orally or intraperitoneally or subcutaneously, once or twice daily. At the end of this period, the animals were euthanized and their colons were collected for further analysis. Among the parameters analyzed were the length of the colon starting from the anus to the top of the cecum, the consistency of any stools found within the colon, and the gross macroscopic appearance of the colon. The distal colon between the 1st and the 4th centimeter was removed and placed in 10% neutral buffered formalin for later histological analysis. For the following parameters, colon length, stool consistency and appearance, and macroscopic damage a scoring system is used to describe the changes. […] Thus, […] Histological analyses of tissues consisted of staining paraffin-embedded tissue sections with hematoxylin-eosin dye. Epithelial damage scores were determined as the fraction of the tissue section showing damaged epithelium. […] Statistical analysis performed in Graphpad Prism 4.0 using ANOVA with Dunnet's or Bonferroni's multiple comparison's test.

TNBS induced colitis = test: Trinitrobenzenesulfonic acid (TNBS) Induced Colitis, mice; format: in vivo, Balb/c female mice; conditions: mouse
Source text: In Vivo Model: Trinitrobenzenesulfonic acid (TNBS) Induced Colitis
The TNBS model of experimental colitis (Bobin-Dubigeon, C., Collin, X., Grimaud, N., Robert, J-M., Guillaume Le Baut, G., and Petit, J-Y. Effects of tumour necrosis factor-a synthesis inhibitors on rat trinitrobenzene sulphonic acid-induced chronic colitis. Eur. J. Pharmacology, 431: 103-110, 2001), is characterized by shrinkage of the colon, intraperitoneal serosal adhesions, severe wounding and inflammatory damage, diarrhea, a continuous pattern of mucosal epithelial damage in the distal colon with infiltration of inflammatory cells. These symptomatic signs in the above—mentioned models are similar to what occur in human colitis.
Male Wistar rats (200-250 g) are inoculated with 500 microliters of a solution of 10 to 20 mg of TNBS in 30% ethanol delivered intracolonically via catheter or ball-tipped gavage needle to the 8th cm from the anus. When Balb/c female mice (8-12 weeks of age) were used, the inoculation volume was 50 microliters containing 2-3 mg of TNBS in 30% ethanol delivered intracolonically via catheter or ball-tipped gavage needle to the 4th cm from the anus. During the ensuing 7 days, test animals were administered a preparation of an experimental compound. This material may be administered orally, subcutaenously or intraperitoneally, once or twice daily. […] Among the parameters analyzed were the length of the colon starting from the anus to the top of the cecum, the weight of the colon, the consistency of any stools found within the colon, the presence or absence of intraperitoneal adhesions on the serosal surfacr of the intestin, and the gross macroscopic appearance of the colon. The latter is scored for length and severity of inlfammatory damage using a 10 point score. […]
Histological analyses of tissues consisted of staining paraffin-embedded tissue sections with hematoxylin-eosin dye. Epithelial damage scores were determined as the fraction of the tissue section showing damaged epithelium. Scores were determined as follows: 0=no damage; 1=<⅓ damaged, 2=⅓ to <⅔ damaged, 3=>⅔ damaged. […]

[1] = 10 mg/kg sc bid, C57 Black/6 mice
[2] = 30 mg/kg sc bid, C57 Black/6 mice

COc1cnn(C)c(=O)c1-c1ccc(C[C@H](NC(=O)c2c(Cl)cccc2Cl)C(=O)O)cc1 [Cpd 17]
% Inhibition of Epithelial Damage Score (DSS induced colitis; 3 mg/kg sc bid, balb/c mice): 61.11% | % Inhibition of Total Macroscopic Score (DSS induced colitis; 3 mg/kg sc bid, balb/c mice): 32.95% | % Inhibition of Epithelial Damage Score (DSS induced colitis; [1]): 33.3% | % Inhibition of Total Macroscopic Score (DSS induced colitis; [1]): −7.2% | % Inhibition of Epithelial Damage Score (DSS induced colitis; 10 mg/kg sc bid, balb/c mice): 56.3% | % Inhibition of Total Macroscopic Score (DSS induced colitis; 10 mg/kg sc bid, balb/c mice): 30.6% | % Inhibition of Epithelial Damage Score (DSS induced colitis; [2]): 50% | % Inhibition of Total Macroscopic Score (DSS induced colitis; [2]): 11.2% | % Inhibition of Epithelial Damage Score (DSS induced colitis; 30 mg/kg sc bid, balb/c mice): 78.1% | % Inhibition of Total Macroscopic Score (DSS induced colitis; 30 mg/kg sc bid, balb/c mice): −32.8% | % Inhibition of Total Macroscopic Score (TNBS induced colitis; 10 mg/kg sc bid): 21.30% | % Inhibition of Total Macroscopic Score (TNBS induced colitis; 30 mg/kg sc bid): 25.5% | % Inhibition of Total Macroscopic Score (TNBS induced colitis; 60 mg/kg sc bid): −17%
